Results published in patent publication US10087469B2, “Method of producing sugar solution, sugar solution, and method of producing ethanol” (Toray Industries, Inc., priority 2012, dated 2018).

Tested on: Pichia stipitis NBRC1687 strain
Assay: Growth test of Pichia stipitis using model sugar solution (YPDX medium with additive)
Assay type: cell-based
Design: Xylose concentration in the medium / Glucose concentration in the medium: unit not given here
Conditions: for growth inhibitory effect compared with coumaric acid: particularly in consumption rate of glucose
Method: In main culture of “A. Growth Test of Pichia Stipitis using Model Sugar solution” described below, any one of coumaramide, coumaric acid, and ferulamide was added in a concentration of 2 ppm to 200 ppm as an additive in a medium, and the medium was subjected to a growth test. As a positive control, a YPDX medium free of an additive was subjected to the same test.
A. Growth Test of Pichia Stipitis Using Model Sugar Solution
A Pichia stipitis NBRC1687 strain was statically cultured at 25° C. in a YPDX agar medium produced by adding 2% agar to a YPDX medium shown in Table 3 below (prepreculture). One of colonies formed on the agar medium was inoculated into 10 mL of the YPDX medium with a platinum loop, and cultured at 25° C. and 120 spm in a test tube with a volume of 20 mL for 48 hours under shaking (preculture). One mL of medium after the preculture was added to 9 mL of YPDX medium, and culture was further continued at 25° C. and 60 spm in a test tube with a volume of 20 mL (main culture). 0, 24, and 48 hours after initiation of the culture, sampling was performed, the monosaccharide concentration and the absorbance (OD660) were measured. Thus, growth of fungus bodies was observed.

[1] = additive 2 ppm, 0 h of main culture
[2] = additive 2 ppm, 24 h of main culture
[3] = additive 2 ppm, 48 h of main culture
[4] = additive 20 ppm, 0 h of main culture
[5] = additive 20 ppm, 24 h of main culture
[6] = additive 20 ppm, 48 h of main culture
[7] = additive 200 ppm, 0 h of main culture
[8] = additive 200 ppm, 24 h of main culture
[9] = additive 200 ppm, 48 h of main culture

Row | Structure (SMILES) | fermentation inhibitor in the culture of Pichia stipitis | Glucose concentration in the medium [1] | Xylose concentration in the medium [1] | Glucose concentration in the medium [2] | Xylose concentration in the medium [2] | Glucose concentration in the medium [3] | Xylose concentration in the medium [3] | Glucose concentration in the medium [4] | Xylose concentration in the medium [4] | Glucose concentration in the medium [5] | Xylose concentration in the medium [5] | Glucose concentration in the medium [6] | Xylose concentration in the medium [6] | Glucose concentration in the medium [7] | Xylose concentration in the medium [7] | Glucose concentration in the medium [8] | Xylose concentration in the medium [8] | Glucose concentration in the medium [9] | Xylose concentration in the medium [9] | growth inhibitory effect compared with coumaric acid
1 | NC(=O)/C=C/c1ccc(O)cc1 [Coumaramide, coumaramide] | fermentation inhibitors | 10 | 10 | 2.3 | 2.3 | 0 | 0 | 10 | 10 | 4.82 | 9.7 | 0 | 0 | 10 | 10 | 5.9 | 9.5 | 0 | 0.4 | superior to coumaric acid in growth inhibitory
2 | O=C(O)/C=C/c1ccc(O)cc1 [Coumaric Acid, coumaric acid] |  | 10 | 10 | 2.6 | 2.6 | 0 | 0 | 10 | 10 | 2.6 | 8.7 | 0 | 0 | 10 | 10 | 3.6 | 9.2 | 0 | 0 | 
3 | COc1cc(/C=C/C(N)=O)ccc1O [Ferulamide, ferulamide] | fermentation inhibitors | 10 | 10 | 2.3 | 2.3 | 0 | 0 | 10 | 10 | 6.6 | 9.3 | 0 | 0 | 10 | 10 | 6.7 | 9.7 | 0 | 5.2 | superior to coumaric acid in growth inhibitory
